This test has as its target Myc/Max binding to DNA (Homo sapiens, UniProt P01106). The experiment in a line: Electrophoretic mobility shift assay (EMSA) of Myc/Max binding to DNA. In kind it is biochemical. The settings on record: EMSA; for remaining activity at 100 µM / Bound DNA (%) (100uM): 100 uM test compound; for remaining activity at 100 µM: read-out: Bound DNA (%) (100uM); for remaining activity at 50 µM: 50 uM test compound, read-out: Bound DNA (%) (50uM). As for the experimental part: We also tested our best hit compound Min9 (NUCC-0176234) and newly synthesized analogs for effects of these compounds on Myc/Max binding to DNA in electrophoretic mobility shift assays (EMSAs). (See FIG. 5a and FIG. 5b). We expected the active compounds to impair Myc/Max binding to DNA. Several strucutural analogs of Min9 were tested over multiple doses for inhibiting Myc-DNA binding and we observed a dose-dependent inhibition. (See FIG. 5c).
Additional compounds were synthesized and tested in the EMSA assay at concentrations of 200 μM, 100 μM, and 50 μM.

The record followed here is patent US20170253581A1, “SUBSTITUTED HETEROCYCLES AS c-MYC TARGETING AGENTS” (Northwestern University, priority 2016, published 2017).

Sequence of Myc/Max binding to DNA (P01106 whole entry): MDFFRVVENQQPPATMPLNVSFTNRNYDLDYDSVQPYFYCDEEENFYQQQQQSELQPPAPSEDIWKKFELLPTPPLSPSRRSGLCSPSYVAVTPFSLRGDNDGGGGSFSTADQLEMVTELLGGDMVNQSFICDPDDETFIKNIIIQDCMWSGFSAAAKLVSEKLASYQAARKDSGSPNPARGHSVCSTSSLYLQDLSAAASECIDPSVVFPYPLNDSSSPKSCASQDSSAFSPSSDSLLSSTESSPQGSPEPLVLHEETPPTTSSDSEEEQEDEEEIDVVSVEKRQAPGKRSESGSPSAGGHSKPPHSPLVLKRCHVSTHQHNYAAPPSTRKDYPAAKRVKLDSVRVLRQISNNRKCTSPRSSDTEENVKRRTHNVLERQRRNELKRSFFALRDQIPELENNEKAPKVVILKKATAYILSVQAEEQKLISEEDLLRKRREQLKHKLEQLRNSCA

With `Cc1ccccc1-c1cn(C)nc1-c1ccc(OCc2ccc(Cl)cc2)cc1O` [compound 0198356], the remaining activity at 100 µM came to 118%.
The same measure, in the same setting: as for `COc1ccccc1-c1c[nH]nc1-c1ccc(OCc2ccc(Cl)cc2)cc1O` [compound 0198357], the figure is 62%; as for `COc1ccccc1-c1cn(C)nc1-c1ccc(OCc2ccc(Cl)cc2)cc1O` [compound 0198358], 93%.
Same read-out and setting: the same measure for `Cc1cc(C)c(-c2c[nH]nc2-c2ccc(OCc3ccc(Cl)cc3)cc2O)c(C)c1` [compound 0198359]: 35%; for `Cc1cc(C)c(-c2cn(C)nc2-c2ccc(OCc3ccc(Cl)cc3)cc2O)c(C)c1` [compound 0198360]: 101%.
For `Cn1cc(-c2c[nH]nc2-c2ccc(OCc3ccc(Cl)cc3)cc2O)cn1` [compound 0198361], the remaining activity at 100 µM is 87%.
On to `Cn1cc(-c2cn(C)nc2-c2ccc(OCc3ccc(Cl)cc3)cc2O)cn1` [compound 0198362], for which the remaining activity at 100 µM is 109%.
On the same count and under the same terms, the same measure for `N#Cc1ccc(-c2c(-c3ccc(OCc4ccc(Cl)cc4)cc3O)n[nH]c2C(F)(F)F)cc1` [compound 0198391]: 4%; for `Cn1nc(C(F)(F)F)c(-c2ccc(C#N)cc2)c1-c1ccc(OCc2ccc(Cl)cc2)cc1O` [compound 0198392]: 54%.
Still for that read-out and setting: the same measure for `Cn1nc(-c2ccc(OCc3ccc(Cl)cc3)cc2O)c(-c2ccc(C#N)cc2)c1C(F)(F)F` [compound 0198393]: 71%; for `NC(=O)c1ccc(-c2c(-c3ccc(OCc4ccc(Cl)cc4)cc3O)n[nH]c2C(F)(F)F)cc1` [compound 0198394]: 30%.
Still for that read-out and setting: as for `C/C(=N\N)c1ccc(-c2c(-c3ccc(OCc4ccc(Cl)cc4)cc3O)n[nH]c2C(F)(F)F)cc1` [compound 0198395], the figure is 109%; as for `CN/N=C(\C)c1ccc(-c2c(C(F)(F)F)nn(C)c2-c2ccc(OCc3ccc(Cl)cc3)cc2O)cc1` [compound 0198396], 56%.
For the molecule `CN/N=C(\C)c1ccc(-c2c(-c3ccc(OCc4ccc(Cl)cc4)cc3O)nn(C)c2C(F)(F)F)cc1` [compound 0198397], the remaining activity at 100 µM was 82%.
On to `N#Cc1cccc(-c2c(-c3ccc(OCc4ccc(Cl)cc4)cc3O)n[nH]c2C(F)(F)F)c1` [compound 0198398], for which the remaining activity at 100 µM is 3%.
Same read-out and setting: as for `Cn1nc(C(F)(F)F)c(-c2cccc(C#N)c2)c1-c1ccc(OCc2ccc(Cl)cc2)cc1O` [compound 0198399], the figure is 2%; as for `Cn1nc(-c2ccc(OCc3ccc(Cl)cc3)cc2O)c(-c2cccc(C#N)c2)c1C(F)(F)F` [compound 0198400], 48%.
In the case of `NC(=O)c1cccc(-c2c(-c3ccc(OCc4ccc(Cl)cc4)cc3O)n[nH]c2C(F)(F)F)c1` [compound 0198401], the remaining activity at 100 µM came out at 77%.
In the case of `Cn1nc(C(F)(F)F)c(-c2cccc(C(N)=O)c2)c1-c1ccc(OCc2ccc(Cl)cc2)cc1O` [compound 0198402], the remaining activity at 100 µM was determined as 57%.
The same measure, in the same setting: as for `C/C(=N\N)c1cccc(-c2c(-c3ccc(OCc4ccc(Cl)cc4)cc3O)n[nH]c2C(F)(F)F)c1` [compound 0198403], the figure is 44%.
The same measure, in the same setting: as for `CN/N=C(\C)c1cccc(-c2c(C(F)(F)F)nn(C)c2-c2ccc(OCc3ccc(Cl)cc3)cc2O)c1` [compound 0198404], the figure is 67%; as for `CN/N=C(\C)c1cccc(-c2c(-c3ccc(OCc4ccc(Cl)cc4)cc3O)nn(C)c2C(F)(F)F)c1` [compound 0198405], 89%; as for `CCc1ccc(Oc2c(-c3ccc(O)cc3O)n[nH]c2C(F)(F)F)cc1` [compound 0198406], 0%.
On to `Cn1nc(C(F)(F)F)c(Br)c1-c1ccc(OCc2ccc(Cl)cc2)cc1O` [compound 0198407], for which the remaining activity at 100 µM was 13%.
The same measure, in the same setting: as for `Cn1nc(-c2ccc(OCc3ccc(Cl)cc3)cc2O)c(Br)c1C(F)(F)F` [compound 0198408], the figure is 136%; as for `Cn1nc(C(F)(F)F)c(-c2ccc(C(N)=O)cc2)c1-c1ccc(OCc2ccc(Cl)cc2)cc1O` [compound 0198409], 69%; as for `Cn1nc(C(F)(F)F)c(-c2ccccc2OC(F)(F)F)c1-c1ccc(OCc2ccc(Cl)cc2)cc1O` [compound 0198410], 44%.
With `CCc1ccc(Oc2c(-c3ccc(O)cc3O)nn(C)c2C(F)(F)F)cc1` [compound 0198411], the “Bound DNA (%) (100uM)” value is on record as 30%.
Consider `Cn1nc(C(F)(F)F)cc1-c1ccc(OCc2ccc(Cl)cc2)cc1O` [compound 0198412], for which the remaining activity at 100 µM was found to be 91%.
With `CCOC(=O)c1[nH]nc(-c2ccc(OCc3ccc(Cl)cc3)cc2O)c1-c1ccc(C#N)cc1` [compound 0200489], the remaining activity at 50 µM stood at 99% and the remaining activity at 100 µM is 100%.
As to `Oc1cc(OCc2ccc(Cl)cc2)ccc1-c1n[nH]c(C(F)(F)F)c1Cc1ccccc1Cl` [compound 0200490], the remaining activity at 50 µM was 97% and the remaining activity at 100 µM was determined as 99%.
On to `Oc1cc(Nc2ccc(Cl)cc2)ccc1-c1cc(C(F)(F)F)[nH]n1` [compound 0200491], for which the remaining activity at 50 µM is 73% and the “Bound DNA (%) (100uM)” value is reported as 0%.
In the case of `Cn1nc(-c2ccc(Nc3ccc(Cl)cc3)cc2O)cc1C(F)(F)F` [compound 0200492], the remaining activity at 50 µM was found to be 92% and the remaining activity at 100 µM is 24%.
For `Oc1cc(NCc2ccc(Cl)cc2)ccc1-c1cc(C(F)(F)F)[nH]n1` [compound 0200493] the same measures were 92% and 42%.
Take `Cn1nc(-c2ccc(NCc3ccc(Cl)cc3)cc2O)cc1C(F)(F)F` [compound 0200494]: the remaining activity at 50 µM came to 99% and the remaining activity at 100 µM is 89%.
On the same counts, the results for `Oc1ccc(-c2n[nH]c(C(F)(F)F)c2-c2cc(C(F)(F)F)cc(C(F)(F)F)c2)c(O)c1` [compound 0200495] are 86% and 8%.
Turning to `COc1ccc(-c2c(-c3ccc(O)cc3O)n[nH]c2C(F)(F)F)cc1OC` [compound 0200496], the remaining activity at 50 µM came to 98% and the remaining activity at 100 µM was determined as 81%.
For `Nc1ccc(-c2cc(C(F)(F)F)[nH]n2)c(O)c1` [compound 0200497], the remaining activity at 50 µM worked out at 107% and the remaining activity at 100 µM came to 109%.
`Cn1nc(-c2ccc(N)cc2O)cc1C(F)(F)F` [compound 0200498]: the remaining activity at 50 µM is 100% and the remaining activity at 100 µM is 101%.
On the same counts, the results for `Oc1cc(OCc2ccc(Cl)cc2)ccc1-c1cc(C(F)(F)F)n(Cc2ccccc2)n1` [compound 0200499] are 109% and 100%.
Regarding `Oc1cc(OCc2ccc(Cl)cc2)ccc1-c1cc(C(F)(F)F)nc(-c2cccc(C(F)(F)F)c2)n1` [compound 0200500], the remaining activity at 50 µM stood at 100% and the remaining activity at 100 µM worked out at 109%.
On to `Oc1cc(OCc2ccc(Cl)cc2)ccc1-c1cc(C(F)(F)F)nc(-c2cc(C(F)(F)F)cc(C(F)(F)F)c2)n1` [compound 0200501], for which the remaining activity at 50 µM is 91% and the remaining activity at 100 µM stood at 79%.
